According to patent US11384099B2, “Pyrazolopyridinone compounds” (Janssen Pharmaceutica NV, priority 2017, dated 2022):
pIC50: −log10 of the molar value. Counter-ions that a name gives are not always drawn.

Tests used:
[1] = molecular target: T1, human FGFR3 wild type enzyme (cytoplasmic domain) (Homo sapiens, UniProt P22607); assay: FGFR3 wild type mobility shift assay (enzymatic assay, Caliper); type: biochemical; conditions: 75 μM ATP, 50 minutes at 30° C.
T1 construct: human FGFR3 wild type enzyme (cytoplasmic domain, from Cama Biosciences); purchased Carna Biosciences
Method: FGFR3 Wild Type Mobility Shift Assay (Enzymatic Assay)
(§1) In a final reaction volume of 25 μL, 0.04 ng/μL human FGFR3 wild type enzyme (cytoplasmic domain, from Cama Biosciences) was incubated with 75 μM ATP, 1 μM FL-peptide 30 substrate and 250 nL of testing compound (1% DMSO final) in assay buffer (100 mM HEPES pH 7.4, 10 mM MgCl2, 0.003% Brij35, 1 mM DTT). After incubation for 50 minutes at 30° C. the reaction was stopped with 10 μL of 0.5M EDTA pH 8.0, and then L of reaction mixture was transferred to reading plate and measured on Caliper EZ reader II.

[2] = system: NIH/3T3 cells transfected with control vector (MOCK); assay: NIH/3T3 mock cell proliferation assay (CTG, counter assay); type: cell-based; conditions: Mus musculus, NIH3T3; 72-hr incubation, CellTiter Glo; counter assay for general toxicity
Method: NIH/3T3 Mock Cell Proliferation Assay
In day 1, 90 μL of cell suspension (NIH/3T3 cells transfected with the same control vector as in the above two proliferation assays) (total 30,000 cells per well in growth medium (DMEM containing 1% Glutamax, 10% FBS and 1% Pen/Strep)) was seeded in a 96-well plate and then incubated overnight at 37° C. and 5% CO2. In day 2, 10 μL of growth medium containing 10-fold stock solution of testing compound was added into cell cultures (9 dose points with 3× serial dilution, starting with 30 μM, 0.3% DMSO final). After 72-hr incubation at 37° C. and 5% CO2, in day 5 a volume of 50 μL CellTiter Glo (CTG) reagent was added into cell-containing 96-well plate and the plate was incubated at room temperature for 10 minutes before RLUs (relative light unit) were measured on a microplate reader with luminescence detection module. The RLU value was normalized to survival % and concentration-response curve was plotted using Prism to calculate IC50 (M), pIC50 (−log IC50) and HillSlope value.

[3] = molecular target: T2, human FGFR3 V555M enzyme (cytoplasmic domain carrying V555M mutation) (Homo sapiens, UniProt P22607, V555M); assay: FGFR3 V555M mobility shift assay (enzymatic assay, Caliper); type: biochemical; conditions: 30 μM ATP, 45 minutes at 30° C.
T2 construct: cytoplasmic domain carrying V555M mutation, from Carna Biosciences; purchased Carna Biosciences
Method: FGFR3 V555M Mobility Shift Assay (Enzymatic Assay)
as §1, with “FGFR3 V555M” for “FGFR3 wild type”, “(cytoplasmic domain carrying V555M mutation,” for “(cytoplasmic domain,”, “from Carna” for “from Cama”, “with 30” for “with 75”, “for 45” for “for 50”

T2 sequence (P22607 397-806 V555M limits assumed): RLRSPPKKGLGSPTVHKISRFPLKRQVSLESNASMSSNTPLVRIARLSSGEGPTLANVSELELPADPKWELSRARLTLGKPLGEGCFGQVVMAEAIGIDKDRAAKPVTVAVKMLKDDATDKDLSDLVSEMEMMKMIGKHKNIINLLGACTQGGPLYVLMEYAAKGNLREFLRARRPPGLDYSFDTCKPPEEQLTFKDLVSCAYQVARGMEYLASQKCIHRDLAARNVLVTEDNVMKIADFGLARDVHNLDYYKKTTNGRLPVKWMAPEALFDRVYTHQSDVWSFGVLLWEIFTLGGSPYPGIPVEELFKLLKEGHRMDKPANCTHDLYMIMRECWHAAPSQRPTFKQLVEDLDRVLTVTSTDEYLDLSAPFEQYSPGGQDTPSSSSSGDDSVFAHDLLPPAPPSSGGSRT
T1 sequence (P22607 397-806 limits assumed): as the sequence (P22607 397-806 V555M limits assumed) above, with M159V counted along it

Row | Compound | pIC50 [1] | pIC50 [2] | pIC50 [3]
1 | COCC(Nc1c(-c2nc3ccc(OC)cc3[nH]2)c(=O)[nH]c2cn(C)nc12)c1ncccn1 (single isomer, unassigned) [Compound 12, (S*)-7-((2-methoxy-1-(pyrimidin-2-yl)ethyl)amino)-6-(6-methoxy-1H-benzo[d]imidazol-2-yl)-2-methyl-2H-pyrazolo[4,3-b]pyridin-5 (4H)-one] | 7.75 | 5.82 | 8.37
2 | CCC(Nc1c(-c2nc3ccc(OC)cc3[nH]2)c(=O)[nH]c2cn(C)nc12)c1ncccn1 (single isomer, unassigned) [Compound 17, (R*)-6-(6-Methoxy-1H-benzo[d]imidazol-2-yl)-2-methyl-7-((1-(pyrimidin-2-yl)propyl)-amino)-2H-pyrazolo[4,3-b]pyridin-5 (4H)-one] | 8.31 | 6.02 | 9.02
3 | COc1cc2[nH]c(-c3c(NC(c4ncccn4)C(C)C)c4nn(C)cc4[nH]c3=O)nc2cn1 (single isomer, unassigned) [Compound 18, (S*)-6-(6-methoxy-1H-imidazo[4,5-c]pyridin-2-yl)-2-methyl-7-((2-methyl-1-(pyrimidin-2-yl)propyl)amino)-2H-pyrazolo[4,3-b]pyridin-5 (4H)-one] | 8.07 | 5.51 | 8.77
4 | CC(C)[C@H](Nc1c(-c2nc3ncc(N(C)C)cc3[nH]2)c(=O)[nH]c2cn(C)nc12)c1ncccn1 (single isomer, unassigned) [Compound 23, (S*)-6-(6-(dimethylamino)-1H-imidazo[4,5-b]pyridin-2-yl)-2-methyl-7-((2-methyl-1-(pyrimidin-2-yl)propyl)amino)-2H-pyrazolo[4,3-b]pyridin-5 (4H)-one 0.14 formate] | 8.45 | 6.03 | 9.40
5 | COc1cc2nc(-c3c(N[C@H](c4ncccn4)C(C)C)c4nn(C)cc4[nH]c3=O)[nH]c2cc1OC (single isomer, unassigned) [Compound 27, (S*)-6-(5,6-dimethoxy-H-benzo[d]imidazol-2-yl)-2-methyl-7-((2-methyl-1-(pyrimidin-2-yl)propyl)amino)-2H-pyrazolo[4,3-b]pyridin-5 (4H)-one] | – | 6.14 | –
6 | COCCOc1cc2[nH]c(-c3c(NC(c4ncccn4)C(C)C)c4nn(C)cc4[nH]c3=O)nc2cc1OC (single isomer, unassigned) [Compound 36, (S*)-6-(5-methoxy-6-(2-methoxyethoxy)-1H-benzo[d]imidazol-2-yl)-2-methyl-7-((2-methyl-1-(pyrimidin-2-yl)propyl)amino)-2H-pyrazolo[4,3-b]pyridin-5 (4H)-one] | 8.65 | 6.12 | 9.30
7 | COc1cnc2nc(-c3c(NC(c4ncccn4)C(C)C)c4nn(C)cc4[nH]c3=O)[nH]c2c1 (single isomer, unassigned) [Compound 40, (S*)-6-(6-methoxy-1H-imidazo[4,5-b]pyridin-2-yl)-2-methyl-7-((2-methyl-1-(pyrimidin-2-yl)propyl)amino)-2,4-dihydro-5H-pyrazolo[4,3-b]pyridin-5-one] | 8.23 | 5.76 | 9.13
8 | CCC(Nc1c(-c2nc3cc(OC)c(OC)cc3[nH]2)c(=O)[nH]c2cn(CC)nc12)c1ncccn1 (single isomer, unassigned) [Compound 44, (S*)-6-(5,6-dimethoxy-1H-benzo[d]imidazol-2-yl)-2-ethyl-7-((1-(pyrimidin-2-yl)propyl)-amino)-2H-pyrazolo[4,3-b]pyridin-5 (4H)-one] | 8.51 | 5.64 | 8.93
9 | COc1cc2nc(-c3c(NC(c4ncccn4)C4CC4)c4nn(C)cc4[nH]c3=O)[nH]c2cc1OC (single isomer, unassigned) [Compound 46, (S*)-7-((cyclopropyl(pyrimidin-2-yl)methyl)amino)-6-(5,6-dimethoxy-1H-benzo[d]-imidazol-2-yl)-2-methyl-2H-pyrazolo[4,3-b]pyridin-5 (4H)-one] | 8.61 | 6.17 | 9.25
10 | COc1cc(F)c2nc(-c3c(N[C@@H](C)c4ncccn4)c4nn(C)cc4[nH]c3=O)[nH]c2c1 [Compound 2, (S)-6-(4-fluoro-6-methoxy-1H-benzo[d]imidazol-2-yl)-2-methyl-7-((1-(pyrimidin-2-yl)-ethyl)amino)-2H-pyrazolo[4,3-b]pyridin-5 (4H)-one] | 8.54 | 5.62 | 9.10
11 | COc1cnc2nc(-c3c(N[C@@H](C)c4ncccn4)c4nn(C)cc4[nH]c3=O)[nH]c2c1 [Compound 3, (S)-6-(6-methoxy-1H-imidazo[4,5-b]pyridin-2-yl)-2-methyl-7-((1-(pyrimidin-2-yl)-ethyl)amino)-2H-pyrazolo[4,3-b]pyridin-5 (4H)-one] | 8.78 | 6.11 | 9.44
12 | CCn1cc2[nH]c(=O)c(-c3nc4ccc(OC)cc4[nH]3)c(N[C@@H](C)c3ncccn3)c2n1 [Compound 4, (S)-2-ethyl-6-(6-methoxy-1H-benzo[d]imidazol-2-yl)-7-((1-(pyrimidin-2-yl)ethyl)amino)-2H-pyrazolo[4,3-b]pyridin-5 (4H)-one] | 8.47 | 6.13 | 9.00
13 | CCn1cc2[nH]c(=O)c(-c3nc4cc(OC)c(OC)cc4[nH]3)c(N[C@@H](C)c3ncccn3)c2n1 [Compound 6, (S)-6-(5,6-Dimethoxy-1H-benzo[d]imidazol-2-yl)-2-ethyl-7-((1-(pyrimidin-2-yl)ethyl)-amino)-2H-pyrazolo[4,3-b]pyridin-5 (4H)-one] | 8.74 | 6.10 | 9.17
14 | CCOc1cc2[nH]c(-c3c(N[C@@H](C)c4ncccn4)c4nn(CC)cc4[nH]c3=O)nc2cc1OC [Compound 8, (S)-6-(6-ethoxy-5-methoxy-1H-benzo[d]imidazol-2-yl)-2-ethyl-7-((1-(pyrimidin-2-yl)-ethyl)amino)-2H-pyrazolo[4,3-b]pyridin-5 (4H)-one] | 8.94 | 6.12 | 9.43
15 | CC[C@H](Nc1c(-c2nc3cnc(N(C)C)cc3[nH]2)c(=O)[nH]c2cn(C)nc12)c1ncccn1 [Compound 22, (S)-6-(6-(dimethylamino)-1H-imidazo[4,5-c]pyridin-2-yl)-2-methyl-7-((1-(pyrimidin-2-yl)propyl)amino)-2H-pyrazolo[4,3-b]pyridin-5 (4H)-one] | 8.44 | 5.90 | 9.13
16 | COc1cc(OC)c2nc(-c3c(N[C@@H](C)c4ncccn4)c4nn(C)cc4[nH]c3=O)[nH]c2c1 [Compound 29, (S)-6-(4,6-Dimethoxy-1H-benzo[d]imidazol-2-yl)-2-methyl-7-((1-(pyrimidin-2-yl)ethyl)-amino)-2H-pyrazolo[4,3-b]pyridin-5 (4H)-one] | 8.72 | 6.09 | 9.29
17 | COc1cc2[nH]c(-c3c(N[C@@H](C)c4ncccn4)c4nn(C)cc4[nH]c3=O)nc2cn1 [Compound 30, (S)-6-(6-methoxy-1H-imidazo[4,5-c]pyridin-2-yl)-2-methyl-7-((1-(pyrimidin-2-yl)ethyl)-amino)-2H-pyrazolo[4,3-b]pyridin-5 (4H)-one] | 8.95 | 5.92 | 9.38
18 | CCn1cc2[nH]c(=O)c(-c3nc4c(OC)cccc4[nH]3)c(N[C@@H](C)c3ncccn3)c2n1 [Compound 32, (S)-2-ethyl-6-(4-methoxy-1H-benzo[d]imidazol-2-yl)-7-((1-(pyrimidin-2-yl)ethyl)amino)-2H-pyrazolo[4,3-b]pyridin-5 (4H)-one] | 8.26 | 5.83 | 8.69
19 | CCn1cc2[nH]c(=O)c(-c3nc4c(F)c(OC)c(OC)cc4[nH]3)c(N[C@@H](C)c3ncccn3)c2n1 [Compound 41, (S)-2-ethyl-6-(4-fluoro-5,6-dimethoxy-1H-benzo[d]imidazol-2-yl)-7-((1-(pyrimidin-2-yl)-ethyl)amino)-2H-pyrazolo[4,3-b]pyridin-5 (4H)-one] | 8.42 | 5.64 | 8.95
